Test in all cases: stopped-flow CO2 hydrase assay
Holding throughout (format): biochemical

For one test, the target named is T1, CA I (Homo sapiens, UniProt P00915).
T1 construct: gene CA1; recombinant, obtained in-house
Summed up:
(§1)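 Ki values were derived by nonlinear least squares using the Cheng–Prusoff equation, applied to initial rates after subtraction of the uncatalysed rate. Values are means of at least three determinations of CO2 hydration by recombinant human carbonic anhydrase isoforms made in-house, measured by stopped-flow (Applied Photophysics) at 557 nm for 10–100 s in 20 mM Hepes (pH 7.5) with 20 mM Na2SO4, 0.2 mM phenol red and 1.7–17 mM CO2. Before the reaction, enzyme and inhibitor were preincubated for 15 min at room temperature.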

The target of another test is T2, CA IX (Homo sapiens, UniProt Q16790).
T2 construct: gene CA9; recombinant, obtained in-house
Particulars: read-out: KI (nM) / CA IX. A digest of the protocol: as §1

The next test has as its target T3, CA VII (Homo sapiens, UniProt P43166).
T3 construct: gene CA7; recombinant, obtained in-house
Summed up: as §1

The target of a further test is T4, CA XII (Homo sapiens, UniProt O43570).
T4 construct: gene CA12; recombinant, obtained in-house
A digest of the protocol: as §1

Another test has as its target T5, CA II (Homo sapiens, UniProt P00918).
T5 construct: gene CA2; recombinant, obtained in-house
A digest of the protocol: as §1

T4 sequence (O43570 25-354): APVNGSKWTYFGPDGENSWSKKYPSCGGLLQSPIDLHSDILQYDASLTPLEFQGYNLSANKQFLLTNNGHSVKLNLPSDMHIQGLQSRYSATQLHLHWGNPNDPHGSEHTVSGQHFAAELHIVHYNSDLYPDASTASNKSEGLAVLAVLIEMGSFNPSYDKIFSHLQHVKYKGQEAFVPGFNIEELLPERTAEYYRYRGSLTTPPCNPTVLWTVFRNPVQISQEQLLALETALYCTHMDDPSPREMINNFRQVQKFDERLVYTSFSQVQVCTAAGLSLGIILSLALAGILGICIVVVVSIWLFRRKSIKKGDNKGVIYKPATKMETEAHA
T3 sequence (P43166 whole entry): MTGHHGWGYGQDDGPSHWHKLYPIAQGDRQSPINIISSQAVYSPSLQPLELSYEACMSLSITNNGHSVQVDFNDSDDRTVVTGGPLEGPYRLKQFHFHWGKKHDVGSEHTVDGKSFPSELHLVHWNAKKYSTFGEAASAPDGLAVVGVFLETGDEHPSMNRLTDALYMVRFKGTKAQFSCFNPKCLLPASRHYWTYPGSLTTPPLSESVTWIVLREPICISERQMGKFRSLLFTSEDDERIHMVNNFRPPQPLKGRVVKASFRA
T1 sequence (P00915 2-261): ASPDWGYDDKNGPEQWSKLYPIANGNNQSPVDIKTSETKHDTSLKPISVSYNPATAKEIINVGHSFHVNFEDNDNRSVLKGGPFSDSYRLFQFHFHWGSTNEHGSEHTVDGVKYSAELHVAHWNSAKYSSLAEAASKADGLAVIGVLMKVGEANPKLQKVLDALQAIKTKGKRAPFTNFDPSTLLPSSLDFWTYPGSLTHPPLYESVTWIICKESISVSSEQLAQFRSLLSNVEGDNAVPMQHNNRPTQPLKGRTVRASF

For `NS(=O)(=O)c1ccc(NC(=O)N2N=C(c3ccccc3)CC2c2ccc(Cl)cc2Cl)cc1` (centres unmarked) [compound 11, 5-(2,4-Dichlorophenyl)-3-phenyl-4,5-dihydro-pyrazole-1-carboxylic acid (4-sulfamoyl-phenyl)-amide], the Ki at CA I stood at 39.5 nM; at CA IX, 1.4 nM; on CA VII it was 2.5 nM; at CA XII it was 0.84 nM; on CA II, 5.4 nM.

The values are drawn from paper PMC7177888, “Aryl-4,5-dihydro-1H-pyrazole-1-carboxamide Derivatives Bearing a Sulfonamide Moiety Show Single-digit Nanomolar-to-Subnanomolar Inhibition Constants against the Tumor-associated Human Carbonic Anhydrases IX and XII” (International Journal of Molecular Sciences, 2020).
